Test results taken from patent US20070293542A1, “Selective Cox-2 Inhibitors” (priority 2003, published 2007).
pIC50: −log10 of the molar value.

Columns and labels:
ovine COX-1 = biological target: T1, ovine COX-1 (Ovis aries, UniProt P05979); assay: COX-1 purified enzyme assay (Cayman Chemical kit, PGH2 production detected as PGF2α by EIA); type: biochemical; settings: purified ovine COX-1; read-out: IC50 for inhibition of COX-1
T1 construct: purchased Cayman Chemical (Ann Arbor, Mich.)
T1 sequence (P05979 25-600): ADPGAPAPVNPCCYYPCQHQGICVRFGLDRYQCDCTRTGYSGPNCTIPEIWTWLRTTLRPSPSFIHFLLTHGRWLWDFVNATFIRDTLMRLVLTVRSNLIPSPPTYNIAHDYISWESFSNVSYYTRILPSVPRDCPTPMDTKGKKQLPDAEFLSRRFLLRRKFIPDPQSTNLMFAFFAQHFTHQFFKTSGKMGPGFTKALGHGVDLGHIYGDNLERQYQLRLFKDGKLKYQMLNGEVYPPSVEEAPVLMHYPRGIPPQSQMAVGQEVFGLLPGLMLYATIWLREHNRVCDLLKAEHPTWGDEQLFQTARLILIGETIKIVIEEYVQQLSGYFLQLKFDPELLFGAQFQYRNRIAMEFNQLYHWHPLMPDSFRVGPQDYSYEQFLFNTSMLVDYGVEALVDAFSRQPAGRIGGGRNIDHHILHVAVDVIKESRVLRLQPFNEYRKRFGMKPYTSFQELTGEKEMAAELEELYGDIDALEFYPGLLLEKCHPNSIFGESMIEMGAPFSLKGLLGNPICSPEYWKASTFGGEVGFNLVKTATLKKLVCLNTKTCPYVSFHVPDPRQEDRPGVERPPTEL
Source text: (§1) Because COX-1 and COX-2 convert arachidonic acid to prostaglandin H2 (PGH2), one can assess COX inhibitory activity of a test compound by measuring the effect of the compound on PGH2 production in the presence of purified COX-1 enzyme and, in a separate assay, in the presence of purified COX-2 enzyme. In this assay, the production of PGH2 can be measured by reducing PGH2 to prostaglandin F2α (PGF2α) with SnCl2 and then detecting PGF2α by enzyme immunoassay (EIA) using a suitable antibody.
Using the methods described above, the inhibition of human COX-2 and ovine COX-1 by desbenzoylindomethacin was measured.

human COX-2 = biological target: T2, human COX-2 (Homo sapiens, UniProt P35354); assay: COX-2 purified enzyme assay (Cayman Chemical kit, PGH2 production detected as PGF2α by EIA); type: biochemical; settings: for COX-2 selectivity (IC50 for COX-1/IC50 for COX-2): ovine COX-1 vs human COX-2, purified enzymes; for pIC50: purified human COX-2, read-out: IC50 for inhibition of COX-2
T2 construct: purchased Cayman Chemical (Ann Arbor, Mich.)
T2 sequence (P35354 18-604): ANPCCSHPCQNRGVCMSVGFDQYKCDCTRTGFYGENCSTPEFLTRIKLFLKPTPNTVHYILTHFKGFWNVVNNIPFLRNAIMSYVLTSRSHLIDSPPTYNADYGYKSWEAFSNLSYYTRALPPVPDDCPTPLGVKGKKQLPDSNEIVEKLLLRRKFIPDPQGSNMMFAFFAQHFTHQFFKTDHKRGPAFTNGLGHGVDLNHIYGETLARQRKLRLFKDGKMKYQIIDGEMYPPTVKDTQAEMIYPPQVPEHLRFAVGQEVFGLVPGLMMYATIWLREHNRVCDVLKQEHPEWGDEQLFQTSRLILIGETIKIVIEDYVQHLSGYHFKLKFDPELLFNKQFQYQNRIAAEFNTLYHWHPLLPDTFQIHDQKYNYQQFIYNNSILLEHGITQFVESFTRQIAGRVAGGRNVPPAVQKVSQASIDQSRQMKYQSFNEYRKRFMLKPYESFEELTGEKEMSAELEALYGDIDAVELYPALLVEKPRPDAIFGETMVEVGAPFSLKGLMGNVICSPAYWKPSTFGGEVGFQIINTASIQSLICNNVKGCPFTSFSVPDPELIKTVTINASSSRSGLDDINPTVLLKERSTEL
Source text: as §1, with “. Because” for “Because”
. Using the methods described above, the inhibition of human COX-2 and ovine COX-1 by desbenzoylindomethacin was measured. […]

prostaglandin synthesis = settings: reported by Shen and Winter 1977; cited from earlier work

Row | Compound | pIC50 (ovine COX-1) | potency reduced relative to indomethacin (human COX-2; COX-1 and COX-2 purified enzyme assays) | COX-2 selectivity (IC50 for COX-1/IC50 for COX-2) (human COX-2) | pIC50 (human COX-2) | ability to inhibit prostaglandin synthesis (prostaglandin synthesis) | melting point
1 | COc1ccc2[nH]c(C)c(CC(=O)O)c2c1 [desbenzoylindomethacin] | 4.70 | ~100 fold | 1.6 | 4.92 | – | –
2 | Cc1c(CC(=O)O)c2cc(O)ccc2n1C(=O)c1ccc(Cl)cc1 [desmethylindomethacin, 1-(p-Chlorobenzoyl)-5-hydroxy-2-methylindole-3-acetic acid] | 4.82 | – | 50-150 | 6.52 to 7.00 | some ability to inhibit prostaglandin synthesis | –
3 | Cc1c(CC(=O)O)c2cc(O)c(F)cc2n1C(=O)c1ccccc1 [compound 12, (1-benzoyl-6-fluoro-5-hydroxy-2-methyl-1H-indol-3-yl)acetic acid] | – | – | – | – | – | 159 to 161 °C
4 | Cc1c(CC(=O)O)c2cc(O)ccc2n1C(=O)c1ccccc1 [compound 5, (1-benzoyl-5-hydroxy-2-methyl-1H-indol-3-yl)acetic acid] | – | – | – | – | – | 186 to 188 °C
